According to patent publication US20240024325A1, “Methods of Managing Cocaine or Other Drug Addictions” (Emory University, priority 2020, published 2024):
“Also recorded” adds a separate entry of the source.

How the values were obtained:
Drosophila melanogaster = assay: Cocaine-induced startle response and seizure activity in the Drosophila model; assay type: in vivo
Description: The percent time out of 45 seconds that each fly spent moving following a 42 cm drop was measured. Male flies exposed to cocaine spent less time moving than flies exposed to untreated food (p=2.13×10^−12). […] Error bars represent standard error.
Drosophila provides an advantageous model system for studies on cocaine consumption. […] In addition, flies develop sensitization to repeated intermittent exposure to cocaine. Startle behavior and the prevalence of seizure activity was measured in male and female flies. Measurements were taken following acute consumption of solid food, solid food supplemented with cocaine, or solid food supplemented with cocaine and ibrutinib. Male flies exposed to cocaine spent less time moving after being subjected to a mechanical startle (FIG. 3A). This is likely due to the occurrence of cocaine-induced seizures, which were scored as stationary periods.

mice = conditions: cited from earlier work

| Structure (SMILES) | prevalence of cocaine-induced seizures during startle assay, female flies (Drosophila melanogaster; female flies, cocaine and ibrutinib vs cocaine only, did not reach statistical significance) | percent time spent moving after mechanical startle (startle response) (Drosophila melanogaster; male and female flies, food with cocaine and ibrutinib vs cocaine only, 45 seconds after 42 cm drop, FIG. 3A) | prevalence of cocaine-induced seizures during startle assay, male flies (Drosophila melanogaster; male flies, cocaine and ibrutinib vs cocaine only, FIG. 3B) | binge drinking (mice) |
| --- | --- | --- | --- | --- |
| C=CC(=O)N1CCC[C@@H](n2nc(-c3ccc(Oc4ccccc4)cc3)c3c(N)ncnc32)C1 [ibrutinib, (R)-1-(3-(4-amino-3-(4-phenoxyphenyl)-1H-pyrazolo[3,4-d]pyrimidin-1-yl)piperidin-1-yl)prop-2-en-1-one] | Fewer cocaine-induced seizures | increase in the percent of time spent moving; also recorded: spent more time moving than flies that only consumed cocaine | significant decrease in the prevalence of seizures |  |
| CC1=C(O)C(=O)[C@@H]2O[C@@H]2C1=O [terreic acid] |  |  |  | reduced binge drinking in mice |
